In US20230293535A1, “ERBB/BTK INHIBITORS” (Dizal (Jiangsu) Pharmaceutical Co., Ltd., priority 2018, published 2023):
Counter-ions that a name gives are not always drawn. Like-named read-outs stand apart in the source and are kept apart here.

Tests used:
WT EGFR cell line A-431 = assay: Cell proliferation, WT EGFR A431 (CellTiter-Glo, 72 h); assay type: cell-based; settings: Homo sapiens, A-431, 72 h;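 note: proliferation from a luminescent ATP viability signal, expressed as 100 × (treated minus time-zero plate) over (DMSO control minus time-zero plate), cells grown with 10% FBS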
TMD-8 cells = assay: BTK (wt) cell proliferation, TMD-8 (CellTiter-Glo, 72 h); assay type: cell-based; settings: Homo sapiens, TMD8, 72 h, TMD-8 cells, 72 h, CellTiter-Glo; read-out: BTK WT TMD-8 GI50;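 note: viable cells quantified by ATP-based luminescence, proliferation expressed as percent of DMSO control after subtracting a time-zero baseline plate read at dosing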
[1] = system: Her2 exon 20 insertion YVMA transduced NIH-3T3 cell line; assay: Cell proliferation, Her2 YVMAins NIH-3T3 (CellTiter-Glo, 72 h); assay type: cell-based; settings: Mus musculus, NIH3T3, 72 h, Her2 YVMAins cells, 72 h proliferation; read-out: Her2 Exon 20 YVMA insertion GI50;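 note: viable cells quantified by ATP luminescence, growth over a day-zero baseline plate expressed as percent of DMSO control growth, compound dilution series in 10% FBS medium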
EGFR L858R&T790M = target: T1, EGFR L858R&T790M (Homo sapiens, UniProt P00533, L858R/T790M); assay: EGFR L858R and T790M cellular phosphorylation inhibition in NCI-H1975 (MSD); assay type: cell-based; settings: NCI-H1975 cells, 4 h compound, p-EGFR(Y1068)/total EGFR; read-out: EGFR L858R and T790M mutation IC50;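 note: phosphorylated and total EGFR detected by electrochemiluminescence, cells exposed to compound in medium containing 1% FBS at 37 °C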
T1 construct: host or cells: NCI-H1975
Protocol: (§1) One day before the test, WT or mutant cells were seeded in 96 well plates at appropriate concentrations with corresponding growth media supplemented with 1% FBS, and incubated overnight. The next day, tested compounds at a series of concentrations were added into each individual well of the plates, and the plates were incubated for 4 h at 37° C. with 5% CO2.
(§2) The EGFR (Y1068) phosphorylation level (activity) of cells in each well were then measured with MSD kit named “MULTI-SPOT®96 4-Spot HB Prototype EGFR Triplex [sequence]: pEGFR(Tyr1068),pEGFR(Tyr1173), Total EGFR” according to the manufacturer’s instruction (MESO SCALE DISCOVERY, Cat# N45ZB-1). The assay is an electrochemiluminescent method for determining both phosphorylated and total EGFR of cells with an MSD SECTOR® Imager and the ratio of p-EGFR/total EGFR can be generated by the machine. The Her2 (Y1248) phosphorylation level (activity) of cells in each well were measured with MSD Kit named “Phospho-ErbB2 (Tyr1248) Assay Whole Cell Lysate Kit” according to the manufacturer’s instruction (MESO SCALE DISCOVERY, Cat# K151CLD-3). The assay is an electrochemiluminescent method (MESO SCALE DISCOVERY) for determining both phosphorylated and total Her2 of cells with an MSD SECTOR® Imager and then the ratio of p-Her2/total Her2 can be generated by the machine.

[2] = system: NCI-H1975 EGFR L858R/T790M cells; assay: Cell proliferation, NCI-H1975 EGFR L858R/T790M (CellTiter-Glo, 72 h); assay type: cell-based; settings: Homo sapiens, NCI-H1975, 72 h;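 note: viable cells quantified by luciferase-based ATP luminescence, proliferation expressed relative to DMSO-treated wells (100%) after subtracting a parallel plate read at the time of dosing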
[3] = In vitro human hepatocytes clearance assay; settings: both, human, cryopreserved human hepatocytes (suspension), human hepatocytes Clint (µL/min/10^6cells), mixed gender human hepatocytes, incubation up to 100 min
Protocol: The protocol for rat/human hepatocytes metabolic stability assay is employed to determine the clearance of the compounds of the present disclosure in vitro.
Rat hepatocytes in male gender and human hepatocytes in mixed gender were obtained from commercial vendors (e.g., BioreclamationIVT) and stored at -150° C. prior to use. 10 mM stock solutions of tested compounds were prepared in DMSO. Thawing medium and supplement incubation medium (serum-free) were placed in a 37° C. water bath for at least 15 minutes prior to use. Stock solutions were diluted to 100 µM by combining 198 µL acetonitrile and 2 µL of 10 mM stock solution.
Vials of cryopreserved hepatocytes were removed from storage, ensured that vials remain at cryogenic temperatures. The vials were thawed in a 37° C. water bath with gently shaking. Vials were kept in water bath until all ice crystals had dissolved and were no longer visible. Vials were sprayed with 70% ethanol before being transferred to a biosafety cabinet. And then the contents were poured into the 50 mL thawing medium conical tube. Vials were centrifuged at 100 g for 10 minutes at room temperature.
Cell viability and density were counted using a Trypan Blue exclusion, and then cells were diluted with serum-free incubation medium to a working cell density of 1 × 10^6 viable cells/ml. […] The inactivated hepatocytes were used to prepare negative samples, which were used to exclude the misleading factor that resulted from instability of chemical itself.
Aliquots of 247.5 µL hepatocytes were dispensed into each well of a 96-well non-coated plate. The plate was placed in the incubator on an orbital shaker for approximately 10 minutes. Aliquots of 2.5 µL of the 100 µM test compounds were added into respective wells of the non-coated 96-well plate to start the reaction. This assay was performed in duplicate. The plate was incubated in the incubator on an orbital shaker for the designed time points. […] Samples were centrifuges for 20 minutes at 4000 g and aliquots of 100 µL of the supernatants were used for LC-MS/MS analysis for measurement of test compounds
In vitro hepatocyte clearance was estimated based on determination of elimination half-life (T½) of compounds disappearance from their initial concentrations. Peak area ratios of each compound (test or control) to IS was calculated. Ln (%Control) versus Incubation Time (min) curve was plotted, and the slope of a linear fitting line was calculated.

Ri-1 cells = assay: BTK (wt) cell proliferation, Ri-1 (CellTiter-Glo, 72 h); assay type: cell-based; settings: Ri-1, 72 h, Ri-1 cells, 72 h, CellTiter-Glo; read-out: BTK WT Ri-1 GI50;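 note: viable cells quantified as cellular ATP luminescence, proliferation normalized to a time-zero plate and the DMSO control, compounds tested across a dilution series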
[4] = target: T2, human EGFR exon 20 V769_D770insASV (Homo sapiens, UniProt P00533, INS769ASV); assay: EGFR Exon20 ASV insertion cellular phosphorylation inhibition (MSD pEGFR Y1068/total EGFR); assay type: cell-based; settings: Ba/F3 EGFR ASV ins cells, 4 h compound, p-EGFR(Y1068)/total EGFR;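 note: electrochemiluminescent readout on an MSD SECTOR Imager, IL3-independent transduced cells in medium with 1% FBS, compound concentration series at 37 °C and 5% CO2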
T2 construct: expressed in transfected cells; host or cells: Ba/F3 (DSMZ ACC-300), lentiviral transduction, puromycin selection, IL3 depletion
Protocol: To generate the EGFR exon 20 V769_D770insASV transduced Ba/F3 cell line, the parental Ba/F3 cells were infected with the recombinant EGFR V769_D770insASV lentivirus and then followed by 1 µg/ml of puromycin selection and IL3 depletion. The resulting cell line expresses constitutively phosphorylated EGFR protein and proliferates in the absence of IL3, which could be used for in vitro PD and anti-proliferation assays.
as §1, §2

Ba/F3 EGFR ASV ins cells = assay: Cell proliferation, Ba/F3 EGFR ASV ins (CellTiter-Glo, 72 h); assay type: cell-based; settings: Ba/F3 EGFR, 72 h;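 note: IL3-independent Ba/F3 cells transduced with EGFR V769_D770insASV, cellular ATP luminescence after compound exposure, growth relative to DMSO control with the day-0 baseline reading subtracted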
Protocol: WT or mutant cells were seeded in 384 well plates at appropriate concentrations with corresponding growth media supplemented with 10% FBS, for each experiment, identical plates were prepared in duplicates, and the plates were incubated overnight. On the next day, one of each duplicated plates was dosed with tested compounds at a series of concentrations, and another one of the duplicated plate was analysied for G0 value. The dosed plates were incubate for another 72 h at 37° C. with 5% CO2 and the number of viable cells in each well of the G0 plates or the dosed plates were measured by CellTiter-Glo® Luminescent Cell Viability Assay (Promega). This assay is a luminescent method for determining the number viable cells through measurement of cellular ATP concentration by detection of luciferase activity. Detection reagents (15 µl) was dispensed into per well, and the plates were incubate for 30 min at room temperature. Then, the luminescence in each well was measured using the Envision plate reader (PerkinElmer). The percentage of proliferation was calculated based on the formula: %Proliferation= 100 × (G3 value of sample well-Go value)/(G3 value of DMSO control-Go value).

DB cells = assay: BTK (wt) cell proliferation, DB (CellTiter-Glo, 72 h); assay type: cell-based; settings: Homo sapiens, DB, DB cells, CellTiter-Glo, read-out: Non-BCR activated DB GI50;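 note: DB cells in 384-well plates given a dilution series of compound, viable cells read by ATP luminescence, growth expressed versus DMSO control after subtracting a time-zero plate reading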
OCI-LY-10 cells = assay: BTK (wt) cell proliferation, OCI-LY-10 (CellTiter-Glo, 72 h); assay type: cell-based; settings: Homo sapiens, OCI-Ly10, 72 h, OCI-LY-10 cells, 72 h, CellTiter-Glo; read-out: BTK WT OCI-LY-10 GI50;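 note: viable cells quantified via cellular ATP luminescence, proliferation given as percent of DMSO control after subtracting a duplicate plate read at time of dosing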
[5] = target: T3, human EGFR exon 20 H773_V774insNPH (Homo sapiens, UniProt P00533, INS773NPH); assay: EGFR Exon20 NPH insertion cellular phosphorylation inhibition (MSD pEGFR Y1068/total EGFR); assay type: cell-based; settings: Ba/F3 EGFR NPH ins cells, 4 h compound, p-EGFR(Y1068)/total EGFR;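 note: IL3-independent Ba/F3 cells with constitutively phosphorylated EGFR, compound exposure at 37 °C under 5% CO2, electrochemiluminescent MSD measurement of the p-EGFR to total EGFR ratio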
T3 construct: host or cells: Ba/F3

WT EGFR = target: T4, WT EGFR (Homo sapiens, UniProt P00533); assay: WT EGFR cellular phosphorylation inhibition in A-431 (hEGF stimulated, MSD); assay type: cell-based; settings: A431 cells, 4 h compound, then 100 ng/ml hEGF 10 min;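 note: electrochemiluminescence read-out of EGFR Tyr1068 phosphorylation expressed as ratio to total EGFR, cells kept in medium with 1% FBS, compounds tested as a concentration series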
T4 construct: host or cells: A-431

Ba/F3 EGFR NPH ins cells = assay: Cell proliferation, Ba/F3 EGFR NPH ins (CellTiter-Glo, 72 h); assay type: cell-based; settings: Ba/F3 EGFR, 72 h;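 note: IL3-independent cells carrying constitutively phosphorylated EGFR, compound dilution series, viable cells quantified by ATP luminescence, growth relative to DMSO wells after subtracting pre-dosing (day 0) baseline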
[6] = target: T5, human Her2 exon 20 insertion mutation YVMA (Homo sapiens, UniProt P04626, INS775YVMA); assay: Her2 Exon 20 YVMA insertion cellular phosphorylation inhibition (MSD p-Her2 Y1248/total Her2); assay type: cell-based; settings: Her2 YVMAins cells, 4 h compound;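 note: lentivirally transduced NIH-3T3 cells in 1% FBS medium, electrochemiluminescent MSD read-out, graded compound concentrations at 37 °C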
T5 construct: expressed in transfected cells; host or cells: NIH-3T3, lentiviral transduction, puromycin selection

[7] = A431, 72 h proliferation, read-out: EGFR WT A431 GI50
[8] = NCI-H1975, 72 h proliferation, read-out: EGFR L858R and T790M mutation GI50
[9] = Ba/F3 EGFR ASV ins, 72 h proliferation, read-out: EGFR Exon20 ASV insertion GI50
[10] = Ba/F3 EGFR NPH ins, 72 h proliferation, read-out: EGFR Exon20 NPH insertion GI50
[11] = read-out: EGFR WT A431 GI50 (nM)
[12] = read-out: EGFR L858R and T790M mutation GI50 (nM)
[13] = read-out: EGFR Exon20 ASV insertion GI50 (nM)
[14] = read-out: EGFR Exon20 NPH insertion GI50 (nM)

T1 sequence (P00533 25-1210 T790M/L858R): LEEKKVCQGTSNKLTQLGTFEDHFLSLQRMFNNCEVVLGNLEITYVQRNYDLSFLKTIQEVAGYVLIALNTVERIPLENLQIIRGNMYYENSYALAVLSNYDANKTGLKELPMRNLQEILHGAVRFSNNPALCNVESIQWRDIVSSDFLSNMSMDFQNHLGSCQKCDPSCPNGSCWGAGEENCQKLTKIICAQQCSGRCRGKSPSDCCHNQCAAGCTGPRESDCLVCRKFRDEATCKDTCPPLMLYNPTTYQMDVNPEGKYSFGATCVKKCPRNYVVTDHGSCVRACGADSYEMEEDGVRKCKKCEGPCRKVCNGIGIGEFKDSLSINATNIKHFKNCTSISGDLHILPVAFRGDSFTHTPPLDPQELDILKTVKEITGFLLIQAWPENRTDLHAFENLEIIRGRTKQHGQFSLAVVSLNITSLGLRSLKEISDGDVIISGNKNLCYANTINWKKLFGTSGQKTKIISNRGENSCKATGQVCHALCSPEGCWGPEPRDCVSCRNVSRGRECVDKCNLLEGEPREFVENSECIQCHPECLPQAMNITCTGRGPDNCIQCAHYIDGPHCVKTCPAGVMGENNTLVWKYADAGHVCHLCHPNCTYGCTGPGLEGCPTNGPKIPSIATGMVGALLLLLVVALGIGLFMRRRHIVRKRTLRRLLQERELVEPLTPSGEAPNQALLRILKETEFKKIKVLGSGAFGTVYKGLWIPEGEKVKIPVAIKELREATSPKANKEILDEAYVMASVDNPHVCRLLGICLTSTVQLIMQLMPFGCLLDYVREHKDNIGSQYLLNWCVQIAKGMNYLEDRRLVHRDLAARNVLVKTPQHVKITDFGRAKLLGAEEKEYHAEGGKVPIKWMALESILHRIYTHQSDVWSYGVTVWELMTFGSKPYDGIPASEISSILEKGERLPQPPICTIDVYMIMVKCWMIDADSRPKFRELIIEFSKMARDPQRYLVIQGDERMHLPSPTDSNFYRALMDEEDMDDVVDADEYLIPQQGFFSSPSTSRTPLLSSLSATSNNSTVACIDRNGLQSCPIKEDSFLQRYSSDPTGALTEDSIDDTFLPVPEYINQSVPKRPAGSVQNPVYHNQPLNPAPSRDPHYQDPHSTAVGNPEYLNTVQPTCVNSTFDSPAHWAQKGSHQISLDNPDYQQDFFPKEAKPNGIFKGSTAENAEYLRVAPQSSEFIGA
T3 sequence (P00533 with tags, fused parts or gaps INS773NPH): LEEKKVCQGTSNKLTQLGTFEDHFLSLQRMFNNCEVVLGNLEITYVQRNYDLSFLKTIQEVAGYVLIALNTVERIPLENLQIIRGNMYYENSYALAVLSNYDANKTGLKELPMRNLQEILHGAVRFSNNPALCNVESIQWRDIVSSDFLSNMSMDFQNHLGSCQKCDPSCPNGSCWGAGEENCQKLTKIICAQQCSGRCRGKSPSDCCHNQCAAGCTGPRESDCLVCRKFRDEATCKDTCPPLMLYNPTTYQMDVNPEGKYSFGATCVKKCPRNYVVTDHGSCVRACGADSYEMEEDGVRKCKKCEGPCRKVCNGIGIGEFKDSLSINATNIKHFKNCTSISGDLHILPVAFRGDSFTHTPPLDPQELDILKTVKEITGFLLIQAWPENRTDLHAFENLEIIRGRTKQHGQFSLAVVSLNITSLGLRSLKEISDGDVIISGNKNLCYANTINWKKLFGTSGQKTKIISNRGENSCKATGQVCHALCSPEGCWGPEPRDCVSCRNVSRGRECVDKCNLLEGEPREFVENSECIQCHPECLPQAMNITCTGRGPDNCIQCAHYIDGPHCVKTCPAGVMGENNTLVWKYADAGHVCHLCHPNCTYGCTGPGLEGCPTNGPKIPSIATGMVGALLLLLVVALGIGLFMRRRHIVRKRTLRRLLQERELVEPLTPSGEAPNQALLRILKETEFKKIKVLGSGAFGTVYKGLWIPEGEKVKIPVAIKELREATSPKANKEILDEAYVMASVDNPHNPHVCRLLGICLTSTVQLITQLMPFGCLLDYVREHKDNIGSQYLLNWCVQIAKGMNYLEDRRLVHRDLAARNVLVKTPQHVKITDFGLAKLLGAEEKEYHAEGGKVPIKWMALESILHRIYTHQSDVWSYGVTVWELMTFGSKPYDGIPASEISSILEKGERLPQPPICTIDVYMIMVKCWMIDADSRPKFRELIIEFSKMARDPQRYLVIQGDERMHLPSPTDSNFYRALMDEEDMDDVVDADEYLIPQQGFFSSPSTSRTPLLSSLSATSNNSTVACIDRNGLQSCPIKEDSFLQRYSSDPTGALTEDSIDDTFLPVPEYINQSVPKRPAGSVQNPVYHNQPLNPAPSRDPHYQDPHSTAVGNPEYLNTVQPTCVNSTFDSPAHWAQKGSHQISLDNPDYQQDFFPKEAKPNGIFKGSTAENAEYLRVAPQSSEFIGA
T5 sequence (P04626 with tags, fused parts or gaps INS775YVMA): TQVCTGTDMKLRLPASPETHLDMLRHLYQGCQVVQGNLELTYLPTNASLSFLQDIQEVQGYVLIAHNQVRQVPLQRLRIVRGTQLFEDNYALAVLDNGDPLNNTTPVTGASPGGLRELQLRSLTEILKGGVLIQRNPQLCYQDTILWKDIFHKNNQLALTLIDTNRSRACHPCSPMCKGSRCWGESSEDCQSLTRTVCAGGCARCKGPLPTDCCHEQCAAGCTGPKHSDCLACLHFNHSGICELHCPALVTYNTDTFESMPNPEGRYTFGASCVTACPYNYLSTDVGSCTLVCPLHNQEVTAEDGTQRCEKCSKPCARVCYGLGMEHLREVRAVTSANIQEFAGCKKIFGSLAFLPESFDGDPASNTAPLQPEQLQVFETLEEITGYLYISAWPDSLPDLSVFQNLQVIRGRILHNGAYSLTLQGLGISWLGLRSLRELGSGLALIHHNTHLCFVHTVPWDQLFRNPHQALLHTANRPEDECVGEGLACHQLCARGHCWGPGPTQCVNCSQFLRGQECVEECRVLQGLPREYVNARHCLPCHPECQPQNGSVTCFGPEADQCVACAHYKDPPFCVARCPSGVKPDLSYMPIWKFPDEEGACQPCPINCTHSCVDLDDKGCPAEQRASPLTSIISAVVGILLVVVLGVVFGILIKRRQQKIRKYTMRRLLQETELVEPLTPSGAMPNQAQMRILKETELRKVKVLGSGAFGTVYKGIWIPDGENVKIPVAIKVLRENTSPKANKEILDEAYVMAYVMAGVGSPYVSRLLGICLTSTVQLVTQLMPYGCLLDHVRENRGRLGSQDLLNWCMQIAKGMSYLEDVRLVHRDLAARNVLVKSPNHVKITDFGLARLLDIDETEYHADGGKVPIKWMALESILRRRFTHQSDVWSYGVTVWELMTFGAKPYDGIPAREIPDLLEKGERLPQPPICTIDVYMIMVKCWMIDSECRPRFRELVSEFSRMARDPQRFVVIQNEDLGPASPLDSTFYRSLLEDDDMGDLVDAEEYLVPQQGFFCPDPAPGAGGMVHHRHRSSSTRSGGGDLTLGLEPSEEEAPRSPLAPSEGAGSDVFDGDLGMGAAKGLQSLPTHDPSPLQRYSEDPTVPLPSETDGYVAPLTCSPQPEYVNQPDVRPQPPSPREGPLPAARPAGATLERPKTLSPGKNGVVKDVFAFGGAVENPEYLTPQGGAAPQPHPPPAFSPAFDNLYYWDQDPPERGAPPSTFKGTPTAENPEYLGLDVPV
T4 sequence (P00533 25-1210): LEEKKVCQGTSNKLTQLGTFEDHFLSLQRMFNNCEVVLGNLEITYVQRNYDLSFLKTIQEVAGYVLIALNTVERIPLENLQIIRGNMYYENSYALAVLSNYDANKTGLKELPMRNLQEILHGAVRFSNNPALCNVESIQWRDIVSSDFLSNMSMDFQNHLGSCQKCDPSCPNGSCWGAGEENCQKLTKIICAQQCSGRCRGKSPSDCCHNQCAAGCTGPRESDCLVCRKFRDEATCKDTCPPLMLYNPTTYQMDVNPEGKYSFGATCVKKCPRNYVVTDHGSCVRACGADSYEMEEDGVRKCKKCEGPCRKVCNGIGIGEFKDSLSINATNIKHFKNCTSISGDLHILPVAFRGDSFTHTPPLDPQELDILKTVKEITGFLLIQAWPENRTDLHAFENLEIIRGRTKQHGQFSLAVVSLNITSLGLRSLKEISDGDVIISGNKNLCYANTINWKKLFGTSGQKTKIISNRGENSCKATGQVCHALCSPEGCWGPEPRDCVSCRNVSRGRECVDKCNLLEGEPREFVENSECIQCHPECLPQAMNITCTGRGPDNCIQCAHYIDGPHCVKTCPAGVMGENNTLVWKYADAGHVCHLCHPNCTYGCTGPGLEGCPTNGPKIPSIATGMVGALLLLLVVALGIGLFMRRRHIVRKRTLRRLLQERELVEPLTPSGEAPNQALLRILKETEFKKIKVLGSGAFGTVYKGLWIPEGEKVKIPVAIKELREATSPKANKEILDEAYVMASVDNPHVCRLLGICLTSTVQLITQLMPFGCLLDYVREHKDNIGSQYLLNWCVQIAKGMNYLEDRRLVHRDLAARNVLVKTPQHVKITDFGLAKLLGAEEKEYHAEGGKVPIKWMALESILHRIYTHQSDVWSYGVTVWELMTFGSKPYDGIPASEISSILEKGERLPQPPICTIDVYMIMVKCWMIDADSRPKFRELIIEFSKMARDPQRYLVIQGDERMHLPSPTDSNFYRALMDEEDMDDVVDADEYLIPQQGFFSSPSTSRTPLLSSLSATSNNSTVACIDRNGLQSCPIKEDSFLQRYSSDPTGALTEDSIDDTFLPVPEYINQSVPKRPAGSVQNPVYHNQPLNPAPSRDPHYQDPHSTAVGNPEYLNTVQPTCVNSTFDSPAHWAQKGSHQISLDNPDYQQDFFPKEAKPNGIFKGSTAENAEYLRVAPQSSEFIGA

Compound | GI50 (WT EGFR cell line A-431; [7]) [nM] | GI50 (TMD-8 cells) [nM] | GI50 [1] [nM] | IC50 (EGFR L858R&T790M) [nM] | GI50 [2, 8] [nM] | hepatocyte CLint at 1 µM [3] [µL/min/1e6 cells] | GI50 (Ri-1 cells) [nM] | IC50 [4] [nM] | GI50 (Ba/F3 EGFR ASV ins cells; [9]) [nM] | GI50 (DB cells) [nM] | GI50 (OCI-LY-10 cells) [nM] | IC50 [5] [nM] | IC50 (WT EGFR) [nM] | GI50 (Ba/F3 EGFR NPH ins cells; [10]) [nM] | IC50 [6] [nM] | GI50 (WT EGFR cell line A-431; [11]) [nM] | GI50 [2, 12] [nM] | GI50 (Ba/F3 EGFR ASV ins cells; [13]) [nM] | GI50 (Ba/F3 EGFR NPH ins cells; [14]) [nM]
C=CC(=O)Nc1cc(Nc2nccc(Nc3cc(Cl)c(F)cc3C(C)(C)O)n2)c(OC)cc1N1C[C@@H](C)C[C@@H]1CN(C)C [Compound 91, N-(5-(4-(5-chloro-4-fluoro-2-(2-hydroxypropan-2-yl)phenylamino)pyrimidin-2-ylamino)-2-((2R,4S)-2-((dimethylamino)methyl)-4-methylpyrrolidin-l-yl)-4-methoxyphenyl) acrylamide] | 31.5 | 58 | 148 | 1.5 | 2.2 | 8.57 | 79.4 | 41.2 | 69.6 | > 3000 | 86.8 | 26.2 | 183 | 64.6 | 22.5 |  |  |  | 
C=CC(=O)Nc1cc(Nc2nccc(Nc3cc(Cl)c(F)cc3C(C)(C)O)n2)c(OC)cc1N1C[C@H]2CN(C)[C@H]2C1 [Compound 89, N-(5-(4-(5-chloro-4-fluoro-2-(2-hydroxypropan-2-yl)phenylamino)pyrimidin-2-ylamino)-4-methoxy-2-((1R,5R)-6-methyl-3,6-diazabicyclo[3.2.0]heptan-3-yl)phenyl)acrylamide formic acid salt] |  | 9.86 | 158 | 0.7 |  | 3.84 | 17.5 | 23 |  | > 3000 | 11.4 | 14.8 | 148 |  | 6.8 | 63.1 | 2.8 | 115 | 63.8
C=CC(=O)Nc1cc(Nc2nccc(Nc3cc(Cl)c(F)cc3C(C)(C)O)n2)c(OC)cc1N1CCC[C@@H]1CN1CCC1 [Compound 98, (R)-N-(2-(2-(azetidin-1-ylmethyl)pyrrolidin-1-yl)-5-(4-(5-chloro-4-fluoro-2-(2-hydroxypropan-2-yl)phenylamino)pyrimidin-2-ylamino)-4-methoxyphenyl) acrylamide formic acid salt] |  | 71.5 | 135 | 0.9 |  | 7.6 | 108 | 21.4 |  | > 3000 | 115 | 19.1 | 190 |  | 3.1 | 87.8 | 3.1 | 129 | 112
C=CC(=O)Nc1cc(Nc2ncnc(Nc3cc(F)c(Cl)cc3C(C)(C)O)n2)c(OC)cc1N(C)CCN(C)C [Compound 12, N-(5-(4-(4-chloro-5-fluoro-2-(2-hydroxypropan-2-yl)phenylamino)-1,3,5-triazin-2-ylamino)-2-((2-(dimethylamino)ethyl)(methyl)amino)-4-methoxyphenyl)acrylamide] | 14.2 | 34.5 | 24.5 | 0.3 | 8.4 |  | 51.2 | 6.4 | 25.3 | > 3000 | 27.8 | 10.8 | 7.6 | 21.5 | 3.4 |  |  |  | 
C=CC(=O)Nc1cc(Nc2ncnc(Nc3cc(F)c(F)cc3C(C)(O)CC)n2)c(OC)cc1N1CCC[C@@H]1CN(C)C (stereo partly drawn) [Compound 57, N-(5-(4-(4,5-difluoro-2-(2-hydroxybutan-2-yl)phenylamino)-1,3,5-triazin-2-ylamino)-2-((R)-2-((dimethylamino)methyl)pyrrolidin-1-yl)-4-methoxyphenyl)acrylamide] | 6.1 | 22.9 | 18.7 | 0.4 | 1.3 |  | 34.6 | 7.1 | 11.4 | > 3000 | 72 | 8.5 | 10.5 | 14.8 | 2.6 |  |  |  | 
C=CC(=O)Nc1cc(Nc2ncnc(Nc3cc(F)c(F)cc3C(C)(O)CC)n2)c(OC)cc1N1CCC[C@H]1CN(C)C (stereo partly drawn) [Compound 58, N-(5-(4-(4,5-difluoro-2-(2-hydroxybutan-2-yl)phenylamino)-1,3,5-triazin-2-ylamino)-2-((S)-2-((dimethylamino)methyl)pyrrolidin-1-yl)-4-methoxyphenyl)acrylamide] | 178 | 262 | 553 | 3.6 | 13.1 |  | 372 | 77.3 | 251 | > 3000 | 320 | 297 | 627 | 210 | 117 |  |  |  | 
C=CC(=O)Nc1cc(Nc2ncc(C#N)c(Nc3cc(Cl)c(F)cc3C(C)(C)O)n2)c(OC)cc1N1CC[C@@H](N(C)C)C1 [Compound 85, (R)-N (5-(4-(5-chloro-4-fluoro-2-(2-hydroxypropan-2-yl)phenylamino)-5-cyanopyrimidin-2-ylamino)-2-(3-(dimethylamino)pyrrolidin-1-yl)-4-methoxyphenyl)acrylamide] | 51.1 | 2.6 | 129 | 0.5 | 22.4 |  | 11 | 32.1 | 80.7 | > 3000 | 1.1 | 35.5 | 68.5 | 63.1 | 71.6 |  |  |  | 
